Four substances from US20090136616A1, “METHODS OF FEEDING RUMINANTS ON WINTER FORAGE SUPPLEMENTING WITH ZEOLITE” (priority 2007, published 2009) can be followed below.

Where two headings read alike, the source gives them in different places.

For one series, the system named is feedlot cattle. The experiment in a line: Summary of seven feedlot experiments with Biolite in med and n-med finishing diets (rumen pH, liver abscesses, performance). The format is in vivo. Particulars: sample collected by Geishauser Probe prior to the morning feeding; B at 1.2% DMB.
In series [1] the test system is Char-Hereford cross heifer calves. The format is in vivo. The method, then:
The experimental animals were Char-Hereford cross unweaned heifer calves originating from Western Ontario and Eastern Manitoba Canada. On arrival they were vaccinated for IBR, PI3 and BVD. They were treated for internal and external parasites with Ivomec. They were implanted with Synovex C.
Approximately 350 head of calves were purchased weighing approximately 500 lbs. From this group 160 head and were selected for the experiment and randomly allotted into four experimental groups. Each treatment contains 5 reps of 8 head each. They were grown on a medium energy level diet limit fed calculated to obtain a daily gain of approximately 2.6 lbs. Length of feeding period will be approximately 100 days. After arrival and prior to the trial allotment they were each-backgrounded for approximately 3-4 weeks. They averaged approximately 550 lbs at the beginning of the trial.
Data collected included: • 1. Gain, consumption and conversions at 28 day intervals and overall. • 2. Observations on bloat and metabolic problems. • 3. Cost of gain by treatment including feed and feed additive cost, with no yardage or “mark up”.
Originally the trial was scheduled for 100 days, but because of unusually good performance, it was decided to terminate at 91 days.

Series [2] has as its system Angus cross steer and heifer calves. Particulars: bovine, in vivo. The method, then: The experimental animals were Angus cross steer and heifer calves from Manitoba, Canada. They were trucked to the experimental feedlot located near Kitchener, Ontario, Canada. On arrival of the animal received IBR, PIP and BVD vaccine plus Covexina. They were also treated for internal and external parasites with Ivomec pour on. Prior to the beginning of this trial the calves were preconditioned for approximately 45 days and adapted to a high concentrate diet.
Following the preconditioning period, unhealthy calves were removed and the remaining calves were divided into steer and heifer groups. These groups were then divided at random into 20 pens of steers and 20 pens of heifers. Each of the pens contained 8 head of calves. Five pens of steers and 5 pens of heifers were then allotted to each of 4 experimental treatments.
Initial, 28 day interim weights and final weights were based on gross weights less a 4% pencil shrink. Experimental data collected included average daily gain, feed consumption and feed conversions. In addition, death loss and bloat problems were observed. At the termination of the trial, Rumen pH was measured on 4 animals from each treatment using a Geishauser Probe. The pH measurements were taken at 2, 4 and 6 hours after feeding.
A calcium clinoptilolite zeolite (Biolite®) was added in place of an equivalent amount of corn. […]

[3] abbreviates: summarized: NC vs RT and BL vs no BL treatments pooled.

Description for feedlot cattle: These diets have been composed of corn silage for roughage, flaked corn, and a substantial amount of wet corn milling byproducts.
The feed additives used included Monensin sodium (R) and Tylosin phosphate (T).
Data collected included daily gain, consumption, feed efficiency, rumen pH and observations on bloat and metabolic problems. Carcass data including liver abscess occurrence were collected.
Rumen samples were collected from cattle prior to the morning feeding using a Geishauser Probe.

For Monensin sodium [R], in the series on feedlot cattle, the “rumen pH” value was “R 6.43b means with different super script letter differ, P < .OS O 6.46b”.

With Nova-Cell + Biolite [NC + BL], the “Bloat Treated” value in series [1] (bovine, in vivo) worked out at 0.

In the case of Nova-Cell [NC], in series [1] (91 days), the “Bloat Died” value is reported as 0, the “Bloat Treated” value was determined as 0, the Consumption is on record as 17.0αb and the Conversions amounted to 5.97b. For the same substance, the ADG in series [1] (91 days, limit fed grow ration, BL at 1.2% DMB) is 2.85b. For the same substance, in series [1] (setting [3]), the ADG is 3.03α, the Consumption is 17.11α and the Conversions turned out to be 5.70.

As for “calcium clinoptilolite zeolite [Biolite ®]”, in series [2], the “Metabolics Treated” value was found to be 4.
